From patent US8172395B2, “Medical devices having antimicrobial coatings thereon” (priority 2002, dated 2012)
Where no end group is shown, it is not given here.

Columns and labels:
[1] = test system: L929 mammalian fibroblasts; test: Cytotoxicity, USP Elution Test (MEM elution); details: 5, 0.5 and 0.05 μg/ml; 25% test solution in medium; L929 cells examined after 48 hours
Procedure: Cytotoxicity of Cecropin A melittin hybrid is evaluated according to the USP Elution Test (“Biological Reactivity Tests, In-Vitro: Elution Test”, The United States Pharmacopeial Convention, Inc.). Cell cultures, L929 mammalian fibroblasts (ATCC cell line CCL1, NCTC clone 929), are grown to a near confluent monolayer in 6 well plates (individual wells are 35 mm diameter). […] The serum-supplemented cell culture medium is prepared by mixing 1000 mL Eagle's sterile minimum essential medium (MEM), 100 mL serum, 10 ml L-glutamine solution and antibiotic-antimycotic solution.

[2] = test system: P. aeruginosa GSU #3 (corneal isolate); format: cell-based, Pseudomnas aeruginosa; details: 37° C., 24 h; tested 1-20 μg/ml
Procedure: (§1) Two (2) peptides, Cecropin P1 and Cecropin A-melittin hybrid, from American Peptides Company, Inc. are tested against strains of Pseudomnas aeruginosa GSU # 3 (corneal isolate) and # 9027 (a Gram negative organism), Staphylococcus aureus #6538, and Staphylococcus epidermidis # 17917. The first two strains are Gram negative organisms. The last two strains are Gram positive organisms. These organisms are chosen because they are the most common etiological agents causing infection in the eye. The peptides are kept at −70° C. until they are ready to be used. The peptide concentrations tested are 20, 16, 8, 4, 2 and 1 μg/ml in Delbeco's Phosphate Buffered Saline (PBS).
(§2) The bacteria are harvested, washed twice and adjusted to an O.D. of 10^8 cells/ml. Cells then are serially diluted and adjusted to about 5×10^5 cfu/ml. The cells are inoculated into microtiter plates containing serially decreasing peptide concentrations. The inoculum for the bacterial strains are suspended in Mueller Hinton broth, and the final volume in each well is 200 μl. The microtiter plates are incubated at 37° C. for 24 h. The growth is checked as optical density spectrophotometrically in a microtiter plate reader. The O.D. is compared to the blank and to the growth well to determine the MIC. […]

[3] = test system: P. aeruginosa (PA) (ATCC# 19660); test: Mouse organ culture model: adherence of P. aeruginosa to scarified mouse cornea; details: PA pre-incubated 1 h, PBS control 42.4
Procedure: Using the mouse organ culture model, this assay assesses the ability of a compound to inhibit the binding of P. aeruginosa to scarified eyes. Cecropin A melittin hybrid has been tested at three concentrations: 10, 2, and 0.5 μg/ml.
The solutions are tested for their ability to prevent adherence of P. aeruginosa (PA) (ATCC# 19660) to scarified mouse cornea. For these studies 1×10^7 cfu of PA is combined with each of the solutions at each concentration and incubated for 1 h at room temperature. In addition, 1×10^7 cfu of PA are incubated in PBS for 1 h at room temperature as a control. Following this incubation period, the PA are washed twice to remove the peptide solutions. For each washing step, the cultures are centrifuged at 6,000 rpm for 10 min and pellets are resuspended in 1.0 ml of PBS.
Mouse corneas are scarified under a stereoscopic microscope at 40× magnification. The corneal surface of the eyes is incised with three parallel one-mm wounds. The eyes are then enucleated and placed into sterile culture wells containing 2 ml of MEM.
A 5.0 μl aliquot of each bacterial suspension is delivered onto the surface of the cornea. Eyes are routinely incubated in vitro for 1 h at 37° C. at 95% O2 (5% CO2) after bacterial application. Scanning electron microscopy (SEM) is used to quantitate adherent bacteria.
To determine the efficacy of the peptide, the numbers of bacteria at each concentration is compared from 2 separate identical experiments to the PBS control, p≦0.05 is considered significant. There is a slight reduction at 0.5 μg, but significant difference in adherence at 2 and 10 μg from the control. The values for the bacteria adhered at 0.5 μg is 42.4 and 32.6 for the PBS control and the peptide solution respectively. At 2 μg, it is 42.4 and 15.8 for the PBS control and the peptide solution respectively. At 10 μg, it is 42.4 and 5.8 for the PBS control and the peptide solution respectively.

S. epidermidis #17917 = test: MIC of peptides in Mueller Hinton broth, microtiter plates; format: cell-based, Staphylococcus epidermidis; details: 37° C., 24 h; tested 1-20 μg/ml
Procedure: as §1, §2

S. aureus #6538 = test: as above; format: cell-based, Staphylococcus aureus; details: 37° C., 24 h; tested 1-20 μg/ml
Procedure: as §1, §2

## CC[C@H](C)[C@H](N)C(=O)N[C@@H](CC(C)C)C(=O)N1CCC[C@H]1C(=O)N[C@@H](Cc1c[nH]c2ccccc12)C(=O)N[C@@H](CCCCN)C(=O)N[C@@H](Cc1c[nH]c2ccccc12)C(=O)N1CCC[C@H]1C(=O)N[C@@H](Cc1c[nH]c2ccccc12)C(=O)N[C@@H](Cc1c[nH]c2ccccc12)C(=O)N1CCC[C@H]1C(=O)N[C@@H](Cc1c[nH]c2ccccc12)C(=O)N[C@@H](CCCN=C(N)N)C(=O)N[C@@H](CCCN=C(N)N)C(N)=O [Indolicidin]
[1]
  Cytotoxicity (MEM elution test): non-cytotoxic

## KWKLFKKIGAVLKVL-NH2 (C-terminus assumed) [Cecropin A Melittin Hybrid]
[1]
  Cytotoxicity (MEM elution test): non-cytotoxic
[2]
  Minimal inhibition concentration, P. aeruginosa GSU #3: >20 μg/ml^1 μg/mL
[3]; 0.5 μg/ml peptide
  bacteria adhered (SEM count): 32.6
[3]; 2 μg/ml peptide
  bacteria adhered (SEM count): 15.8
[3]; 10 μg/ml peptide
  bacteria adhered (SEM count): 5.8

## SWLSKTAKKLENSAKKRISEGIAIAIQGGPR [Cecropin P1]
S. epidermidis #17917
  Minimal inhibition concentration, S. epidermidis #17917: >20 μg/ml^1 μg/mL
S. aureus #6538
  Minimal inhibition concentration, S. aureus #6538: >20 μg/ml^1 μg/mL
